Results from patent US4226610A, “Herbicidal compounds, preparation thereof and herbicides containing the same” (Meiji Selka Kaisha, Ltd., priority 1978, dated 1980).
“Also recorded” adds a separate entry of the source.

Assays:
chigaya = assay: Experiment 1 foliar application to naturally growing weeds; type: in vivo, Imperata cylindrica Beauv.; conditions: 4 months
Description: (§1) The detail of the assessment made in the following Experiments of the invention was as follows:
(§2) Four months after treatment, evaluation was made for inhibition of reproduction expressed in terms of symbols ranging from (-) to (+++) where (-) means no reproduction, namely complete suppression of reproduction, (±) remarkable suppression of reproduction; (+) considerable suppression of reproduction; (++) medium supprestion of reproduction; and (+++) no suppression of reproduction.
(§3) The compounds of the invention and other compounds for comparison listed in Table 3 were diluted to prescribed concentrations and sprayed to naturally growing weeds by foliar application in an amount of 150 liter per 10 are.
(§4) 0.1% of octylphenyl polyoxyethanol was added as a surfactant.
(§5) The killing index (0, no effect, 5, death) after 21 days, and the reproduction-inhibiting effect (-, no reproduction; +++, maximum reproduction) after 2 months (manna grass and cockspar grass) and 4 months (other weeds) were determined.

hedge bindweed = assay: as above; type: in vivo, Calystegis hederacea Wall.; conditions: 4 months
Description: as §1, §2, §3, §4, §5

torch azalea = assay: Experiment 3 foliar application to naturally growing shrubs; type: in vivo, Rhododendoron Kaempferi Planch.; conditions: after 3 months
Description: as §1, §2
(§6) The compounds of the invention and other compounds listed in Table 5. were diluted to prescribed concentrations and sprayed onto naturally growing shrubs by foliar application in an amount of 150 liter per 10 are.
(§7) 0.1% of octylphenyl polyoxyethanol was added as the surfactant. The killing index (0, no effect; 5, death) after 1 month and 3 months, and the reproduction-inhibiting effect (-, no reproduction; +++, maximum reproduction) after 3 months were determined.

purple nutsedge = assay: Experiment 1 foliar application to naturally growing weeds; type: in vivo, Cyperus rotundus L.; conditions: 4 months
Description: as §1, §2, §3, §4, §5

kiichigo = assay: Experiment 3 foliar application to naturally growing shrubs; type: in vivo, Rubus palmatsu Thunb. forma coptophyllus Makino; conditions: after 3 months
Description: as §1, §2, §6, §7

oak = assay: as above; type: in vivo, Quercus serrata Thunb; conditions: after 3 months
Description: as §1, §2, §6, §7

azumanezasa = assay: Experiment 1 foliar application to naturally growing weeds; type: in vivo, Pleioblastus Chino Makino; conditions: 4 months
Description: as §1, §2, §3, §4, §5

yamazakura = assay: Experiment 3 foliar application to naturally growing shrubs; type: in vivo, Prunus donarium Sieb. var. spontanae Makino; conditions: after 3 months
Description: as §1, §2, §6, §7

weeds and shrubs = conditions: background statement; cited from earlier work
Japanese bush cranberry = assay: Experiment 3 foliar application to naturally growing shrubs; type: in vivo, Viburnum dilatatum Thunb.; conditions: for Reproduction-inhibiting: after 3 months
Description: as §1, §2, §6, §7

lace shrub = assay: as above; type: in vivo, Stephanandra incisa Zabel; conditions: after 3 months
Description: as §1, §2, §6, §7

cockspar grass = assay: Experiment 1 foliar application to naturally growing weeds; type: in vivo, Echinochloa Crusgalli P. Beauv.; conditions: 2 months
Description: as §1, §2, §3, §4, §5

white clover = assay: as above; type: in vivo, Trifolium repens L.; conditions: 4 months
Description: as §1, §2, §3, §4, §5

warunasubi = assay: as above; type: in vivo, Solanum carolinensis L.; conditions: 4 months
Description: as §1, §2, §3, §4, §5

yabugarashi = assay: as above; type: in vivo, Cayratia japonica Houtt.; conditions: 4 months
Description: as §1, §2, §3, §4, §5

manna grass = assay: as above; type: in vivo, Digitaria adsceudes Henr.; conditions: 2 months
Description: as §1, §2, §3, §4, §5

kumaichigo = assay: Experiment 2 foliar application in Japanese cypress afforested land; type: in vivo, Rubus crataegifolius Bunge; conditions: 0.125%; after 3 months
Method: as §1
The compounds of the invention and other compounds listed in Table 4. were diluted to prescribed concentrations and sprayed to shrubs by foliar application in a Japanese cypress afforested land in an amount of 150 liter per 10 are.
After 30 days and 3 months, the killing index (0, no effect; 5, death) was determined.
The heights of plants were 50-70 cm. for Japanese cypress, about 50 cm. for chestnut, 50-90 cm. for miyakozasa, about 100 cm. for eulalia and 70-100 cm. for kumaichigo, respectively.

Japanese prickly ash = assay: Experiment 3 foliar application to naturally growing shrubs; type: in vivo, Xanthoxylum piperitum DC.; conditions: after 3 months
Description: as §1, §2, §6, §7

O=C(O)CNCP(=O)(O)O [Glyphosate, N-phosphonomethylglycine]
Reproduction-inhibiting effect (chigaya; 0.05%): +++ | Reproduction-inhibiting effect (chigaya; 0.1%): ++ | Reproduction-inhibiting effect (chigaya; 0.2%): ± | Reproduction-inhibiting effect (hedge bindweed; 0.05%): +++ | Reproduction-inhibiting effect (hedge bindweed; 0.1%): +++ | Reproduction-inhibiting effect (hedge bindweed; 0.2%): +++ | Reproduction-inhibiting (torch azalea; 0.05%): +++ | Reproduction-inhibiting (torch azalea; 0.1%): +++ | Reproduction-inhibiting (torch azalea; 0.2%): +++ | Reproduction-inhibiting effect (purple nutsedge; 0.05%): +++ | Reproduction-inhibiting effect (purple nutsedge; 0.1%): +++ | Reproduction-inhibiting effect (purple nutsedge; 0.2%): + | Reproduction-inhibiting (kiichigo; 0.05%): +++ | Reproduction-inhibiting (kiichigo; 0.1%): +++ | Reproduction-inhibiting (kiichigo; 0.2%): ++ | Reproduction-inhibiting (oak; 0.05%): +++ | Reproduction-inhibiting (oak; 0.1%): +++ | Reproduction-inhibiting (oak; 0.2%): +++ | Reproduction-inhibiting effect (azumanezasa; 0.05%): +++ | Reproduction-inhibiting effect (azumanezasa; 0.1%): ++ | Reproduction-inhibiting effect (azumanezasa; 0.2%): + | Reproduction-inhibiting (yamazakura; 0.05%): +++ | Reproduction-inhibiting (yamazakura; 0.1%): +++ | Reproduction-inhibiting (yamazakura; 0.2%): ++ | weeding effects of known herbicides in words (weeds and shrubs): not so effective for broad-leaved weeds; also recorded: poor weeding effects for broadleaved weeds and shrubs | Reproduction-inhibiting (Japanese bush cranberry; 0.05%): +++ | Reproduction-inhibiting (Japanese bush cranberry; 0.1%): +++ | Reproduction-inhibiting (Japanese bush cranberry; 0.2%): ++ | Killing index (Japanese bush cranberry; 0.2%, after 30 days): 1.5 | Reproduction-inhibiting (lace shrub; 0.05%): +++ | Reproduction-inhibiting (lace shrub; 0.1%): +++ | Reproduction-inhibiting (lace shrub; 0.2%): +++ | Reproduction-inhibiting effect (cockspar grass; 0.05%): +++ | Reproduction-inhibiting effect (cockspar grass; 0.1%): ++ | Reproduction-inhibiting effect (cockspar grass; 0.2%): + | Reproduction-inhibiting effect (white clover; 0.05%): +++ | Reproduction-inhibiting effect (white clover; 0.1%): ++ | Reproduction-inhibiting effect (white clover; 0.2%): + | Reproduction-inhibiting effect (warunasubi; 0.05%): +++ | Reproduction-inhibiting effect (warunasubi; 0.1%): +++ | Reproduction-inhibiting effect (warunasubi; 0.2%): + | Reproduction-inhibiting effect (yabugarashi; 0.05%): +++ | Reproduction-inhibiting effect (yabugarashi; 0.1%): +++ | Reproduction-inhibiting effect (yabugarashi; 0.2%): ++ | Reproduction-inhibiting effect (manna grass; 0.05%): +++ | Reproduction-inhibiting effect (manna grass; 0.1%): ++ | Reproduction-inhibiting effect (manna grass; 0.2%): + | Killing index (kumaichigo): 0.5 | Reproduction-inhibiting (Japanese prickly ash; 0.05%): +++ | Reproduction-inhibiting (Japanese prickly ash; 0.1%): +++ | Reproduction-inhibiting (Japanese prickly ash; 0.2%): +++
